Reference: US9034850B2, “Gonadotropin releasing hormone receptor antagonist, preparation method thereof and pharmaceutical composition comprising the same” (SK Chemicals Co., Ltd., priority 2009, dated 2015)

Biological target: T1, GnRH receptor (Homo sapiens, UniProt P30968)
T1 sequence (P30968 1-328): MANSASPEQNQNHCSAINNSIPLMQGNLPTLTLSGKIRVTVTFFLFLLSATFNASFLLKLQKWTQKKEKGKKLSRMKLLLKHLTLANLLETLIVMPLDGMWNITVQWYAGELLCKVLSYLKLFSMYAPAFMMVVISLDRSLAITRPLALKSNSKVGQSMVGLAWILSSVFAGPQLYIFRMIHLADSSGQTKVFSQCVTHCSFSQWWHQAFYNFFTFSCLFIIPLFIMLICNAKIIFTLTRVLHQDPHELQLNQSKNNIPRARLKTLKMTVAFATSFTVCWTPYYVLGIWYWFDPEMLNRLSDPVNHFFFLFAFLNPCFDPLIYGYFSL
Test: GnRH-R reporter assay (NFAT promoter luciferase, leuprolide acetate as ligand)
Type: cell-based
Conditions: not given
Protocol: A double-transformed cell line (HEK293 transformed with pcDNA3.1/GnRH receptor and pGL4/NFAT promoter) was employed. To conduct a GnRH-R reporter assay, the double-transformed cell line was diluted at a density of 3×10^4 cells/well in a medium (DMEM, 10% FBS, 1% Penicillin-Streptomycin), plated into polylysine-coated white-clear bottom 96-well plates and incubated for 24 hrs. After the medium was changed with a serum-free medium (DMEM, 1% Penicillin-Streptomycin), the cells were incubated for an additional 12 hrs before reaction. The cells were incubated for 1 hr with a GnRH antagonist to be tested and then for an additional 6 hrs with a ligand (leuprolide acetate, Sigma), followed by reaction with a Luciferase assay system (Promega, Cat. No. E1500).
Each sample was analyzed at a 6-dose level to obtain the binding inhibitory rates (%) of the competitors on the basis of the measured luminescence. IC50 values were calculated using a nonlinear least square regression method with Prism (GraphPad, Inc.).

Question: For `Cc1c(N2CCN(Cc3cccc(C(F)(F)F)c3)CC2)c(=O)n(C[C@H](NCCCC(=O)O)c2ccccc2)c(=O)n1Cc1c(F)cccc1C(F)(F)F` [Compound 11-2], which IC50 is on record?
Answer: 9.9 nM

Same assay, conditions: HEK293 transformed with pcDNA3.1/GnRH receptor and pGL4/NFAT promoter; luciferase; read-out: IC50 Value

Question: For `Cc1cc(F)cc([C@H](Cn2c(=O)c(N3CCN(Cc4ccc(C(F)(F)F)o4)CC3)c(C)n(Cc3c(F)cccc3C(F)(F)F)c2=O)NCCCC(=O)O)c1` [Compound 11-4], which IC50 is on record?
Answer: 4.9 nM

Tested on: not listed separately
Test: Assay for oral absorptivity (plasma drug level after oral administration)
Type: in vivo
Conditions: male, rat, 40 umol/kg; SD rats, oral, plasma
Protocol: 1) Preparation of Specimen for Measuring Drug Level upon Oral Administration
For use as experimental animals, SD rats (Charles River Japan, male, 8 weeks old, 220-270 g) was starved overnight. Test compounds (25˜30 mg) were dissolved in polyethyleneglycol 400 (PEG400) 20%, and a 0.5% carboxy methyl cellulose (CMC) solution 80% to produce solutions of 4 μmmol/mL. The rats were weighed. The test compounds were orally administered at a dose of 40 μmol/kg (ca. 25˜30 mg/kg) to the rats using a sonde and a 3 mL syringe. Blood samples were taken 20, 40, 60, 120, 240, and 360 min after the oral administration. Plasmas separated from the blood samples by centrifugation were used as specimens.
2) Measurement of Drug Level
0.09 mL of methanol was added to 0.03 mL of the plasma obtained in 1), followed by vortexing to precipitate and remove proteins. 0.005 mL of the supernatant was injected to LC/MS/MS.
Apparatus: Shiseido Nanospace SI-2
Column: Shiseido capcelpack C18, MG3, 5 um, 2.0 mm I.D×50 mm
Mobile Phase: a mixture of 3:7 10 mM ammonium formate (pH 4.0): acetonitrile.

Question: With `Cc1c(N2CCN(Cc3cccc(C(F)(F)F)c3)CC2)c(=O)n(C[C@H](NCCCC(=O)O)c2ccccc2)c(=O)n1Cc1c(F)cccc1C(F)(F)F` [Compound 11-2] as the compound, how does the Cmax read?
Answer: 5100 ng/mL

Question: With `Cc1cc(F)cc([C@H](Cn2c(=O)c(N3CCN(Cc4ccc(C(F)(F)F)o4)CC3)c(C)n(Cc3c(F)cccc3C(F)(F)F)c2=O)NCCCC(=O)O)c1` [Compound 11-4] as the compound, how does the Cmax read?
Answer: 4140 ng/mL

Same assay, conditions: male, rat, 40 μmol/kg; plasma drug level after oral administration, SD rats; read-out: AUC8 hr

Question: With `Cc1c(N2CCN(Cc3cccc(C(F)(F)F)c3)CC2)c(=O)n(C[C@H](NCCCC(=O)O)c2ccccc2)c(=O)n1Cc1c(F)cccc1C(F)(F)F` [Compound 11-2] as the compound, how does the AUC(0-t) read?
Answer: 29400 ng·h/mL

Question: Which AUC(0-t) does the source give for `Cc1cc(F)cc([C@H](Cn2c(=O)c(N3CCN(Cc4ccc(C(F)(F)F)o4)CC3)c(C)n(Cc3c(F)cccc3C(F)(F)F)c2=O)NCCCC(=O)O)c1` [Compound 11-4] here?
Answer: 19600 ng·h/mL

Biological target: T1, GnRH receptor
Test: GnRH receptor membrane binding assay ([125I]-D-Trp6-LHRH competition)
Set-up: purchased Perkin Elmer; host or cells: CHO-K1 (stably transfected), membrane preparation
Conditions: not given
Protocol: A membrane Target system (Perkin Elmer), isolated from CHO-K1 cells stably transfected with a GnRH receptor, was employed. […] After incubation at 27° C. for 1 hr, the reaction mix was transferred to a filter (Fitermat A, PerkinElmer) using a vacuum pump and the reaction was terminated by washing many times with 50 mM tris-HCl buffer. The radioactivity on the filter was measured using Microbeta2 trilux (PerkinElmer). The competitors were analyzed for binding inhibition rate (%) on the basis of the measured radioactivity and calculated for IC50 values using a nonlinear least square regression method with Prism (GraphPad, Inc.).

Question: Which IC50 does the source give for `Cc1c(N2CCN(Cc3ccc(O)cc3)CC2)c(=O)n(C[C@H](N)c2ccccc2)c(=O)n1Cc1c(F)cccc1F` [Compound 3-31] here?
Answer: < 100 nM

Question: For `Cc1c(N2CCN(Cc3cccc(OC(F)(F)F)c3)CC2)c(=O)n(C[C@H](N)c2ccccc2)c(=O)n1Cc1c(F)cccc1F` [Compound 3-1], which IC50 is on record?
Answer: < 100 nM

Question: For `Cc1c(N2CCN(Cc3cccc(C(F)(F)F)c3F)CC2)c(=O)n(C[C@H](N)c2ccccc2)c(=O)n1Cc1c(F)cccc1F` [Compound 3-50], which IC50 is on record?
Answer: < 100 nM

Question: Which IC50 does the source give for `Cc1c(N2CCN(Cc3cccc(C(F)(F)F)c3)CC2)c(=O)n(C[C@H](N)c2ccccc2)c(=O)n1Cc1c(F)cccc1F` [Compound 3-47] here?
Answer: < 100 nM

Question: Which IC50 does the source give for `Cc1c(N2CCCC(C)C2)c(=O)n(C[C@H](N)c2ccccc2)c(=O)n1Cc1c(F)cccc1F` (stereo partly drawn) [Compound 1-18] here?
Answer: < 100 nM

Same assay, conditions: membrane from CHO-K1 cells stably transfected with GnRH receptor; 0.2 nM [125I]-D-Trp6-LHRH; Table 26 lists compounds with IC50 of less than 100 nM; read-out: IC50 as measured by the GnRH receptor membrane binding assay

Question: Which IC50 does the source give for `Cc1c(N2CCN(Cc3ccc(F)c(C(F)(F)F)c3)CC2)c(=O)n(C[C@H](N)c2ccccc2)c(=O)n1Cc1c(F)cccc1F` [Compound 3-52] here?
Answer: < 100 nM

Question: Which IC50 does the source give for `Cc1c(N2CCN(Cc3ccc4c(c3)OCO4)CC2)c(=O)n(C[C@H](N)c2ccccc2)c(=O)n1Cc1c(F)cccc1F` [Compound 1-13] here?
Answer: < 100 nM

Question: For `Cc1c(N2CCN(Cc3ccc(C(F)(F)F)o3)C(CO)C2)c(=O)n(C[C@H](N)c2ccccc2)c(=O)n1Cc1c(F)cccc1C(F)(F)F` (stereo partly drawn) [Compound 22, 3-((R)-2-amino-2-phenyl-ethyl)-1-(2-fluoro-6-trifluoromethyl-benzyl)-5-[3-hydroxymethyl-4-(5-trifluoromethyl-furan-2-ylmethyl)-piperazin-1-yl]-6-methyl-1H-pyrimidine-2,4-dione], which IC50 is on record?
Answer: < 100 nM

Question: Which IC50 does the source give for `CCOP(=O)(O)CCCN[C@@H](Cn1c(=O)c(N2CCN(Cc3ccc(C(F)(F)F)o3)CC2)c(C)n(Cc2c(F)cccc2C(F)(F)F)c1=O)c1ccccc1` [Compound 11-10] here?
Answer: < 100 nM

Question: With `Cc1ccc(CN2CCN(c3c(C)n(Cc4c(F)cccc4F)c(=O)n(C[C@H](N)c4ccccc4)c3=O)CC2)c(C)c1` [Compound 4-4] as the compound, how does the IC50 read?
Answer: < 100 nM

Question: With `N[C@@H](Cn1c(=O)c(N2CCN(Cc3cccc(-c4nnn[nH]4)c3)CC2)cn(Cc2c(F)cccc2C(F)(F)F)c1=O)c1ccccc1` [Compound 18, 3-((R)-2-amino-2-phenyl-ethyl)-1-(2-fluoro-6-trifluoromethyl-benzyl)-5-{4-[3-(1H-tetrazol-5-yl)-benzyl]-piperazin-1-yl}-1H-pyrimidine-2,4-dione] as the compound, how does the IC50 read?
Answer: < 100 nM

Question: Which IC50 does the source give for `Cc1cccc(CN2CCN(c3c(C)n(Cc4c(F)cccc4F)c(=O)n(C[C@H](N)c4ccccc4)c3=O)CC2)c1O` [Compound 4-9] here?
Answer: < 100 nM

Question: With `Cc1cccc(C)c1CN1CCN(c2c(C)n(Cc3c(F)cccc3F)c(=O)n(C[C@H](N)c3ccccc3)c2=O)CC1` [Compound 4-6] as the compound, how does the IC50 read?
Answer: < 100 nM

Question: Which IC50 does the source give for `Cc1c(N2CCN(Cc3ccc(OC(F)(F)F)cc3)CC2)c(=O)n(C[C@H](N)c2ccccc2)c(=O)n1Cc1c(F)cccc1F` [Compound 3-49] here?
Answer: < 100 nM

Question: Which IC50 does the source give for `Cc1c(N2CCC(Cc3ccccc3)CC2)c(=O)n(C[C@H](N)c2ccccc2)c(=O)n1Cc1c(F)cccc1F` [Compound 1-26] here?
Answer: < 100 nM

Question: With `CCOC(=O)CCNC(=O)c1cccc(CN2CCN(c3c(C)n(Cc4c(F)cccc4C(F)(F)F)c(=O)n(C[C@H](N)c4ccccc4)c3=O)CC2)c1` [Compound 10-2] as the compound, how does the IC50 read?
Answer: < 100 nM

Question: With `Cc1c(N2CCN(Cc3ccc(C(F)(F)F)o3)CC2)c(=O)n(C[C@H](O)c2ccccc2)c(=O)n1Cc1c(F)cccc1C(F)(F)F` [Compound 20, 1-(2-fluoro-6-trifluoromethyl-benzyl)-3-((R)-2-hydroxy-2-phenyl-ethyl)-6-methyl-5-[4-(5-trifluoromethyl-furan-2-ylmethyl)-piperazin-1-yl]-1H-pyrimidine-2,4-dione] as the compound, how does the IC50 read?
Answer: < 100 nM

Question: For `Cc1c(N2CCC(C)CC2)c(=O)n(C[C@H](N)c2ccccc2)c(=O)n1Cc1c(F)cccc1F` [Compound 1-16], which IC50 is on record?
Answer: < 100 nM

Question: With `Cc1c(N2CCN(Cc3cccnc3)CC2)c(=O)n(C[C@H](N)c2ccccc2)c(=O)n1Cc1c(F)cccc1F` [Compound 3-7] as the compound, how does the IC50 read?
Answer: < 100 nM

Question: Which IC50 does the source give for `Cc1c(N2CCN(Cc3ccc(C(F)(F)F)o3)CC2)c(=O)n(C[C@H](NCCC(O)C(=O)O)c2ccccc2)c(=O)n1Cc1c(F)cccc1C(F)(F)F` (stereo partly drawn) [Compound 21, 4-((R)-2-{3-(2-fluoro-6-trifluoromethyl-benzyl)-4-methyl-2,6-dioxo-5-[4-(5-trifluoromethyl-furan-2-ylmethyl)-piperazin-1-yl]-3,6-dihydro-2H-pyrimidin-1-yl}-1-phenyl-ethylamino)-2-hydroxy-butyric acid] here?
Answer: < 100 nM

Question: With `Cc1cc(C)c(CN2CCN(c3c(C)n(Cc4c(F)cccc4F)c(=O)n(C[C@H](N)c4ccccc4)c3=O)CC2)c(C)c1` [Compound 3-32] as the compound, how does the IC50 read?
Answer: < 100 nM

Question: Which IC50 does the source give for `CSc1ccc(CN2CCN(c3c(C)n(Cc4c(F)cccc4F)c(=O)n(C[C@H](N)c4ccccc4)c3=O)CC2)cc1` [Compound 3-29] here?
Answer: < 100 nM

Question: With `Cc1c(N2CCN(Cc3ccc(C(F)(F)F)o3)CC2)c(=O)n(C[C@H](NCCCCC(=O)O)c2ccccc2)c(=O)n1Cc1c(F)cccc1C(F)(F)F` [Compound 11-8] as the compound, how does the IC50 read?
Answer: < 100 nM

Question: For `COC(=O)CNC(=O)c1cccc(CN2CCN(c3c(C)n(Cc4c(F)cccc4C(F)(F)F)c(=O)n(C[C@H](N)c4ccccc4)c3=O)CC2)c1` [Compound 10-1], which IC50 is on record?
Answer: < 100 nM
